Laboratory results: patent US20230142739A1, “PROTEIN-PROTEIN INTERACTION STABILIZERS” (The Regents of the University of California, priority 2020, published 2023)
Marks after values point to notes of the source that are not given here. Blank lines part the entries; values can stand above or below the compound they belong to.

Assays:
p65_45/14-3-3γ [1] = biological target: T1, p65_45/14-3-3γ (Homo sapiens, UniProt P61981); assay: Fluorescence anisotropy compound titration, p65_45 peptide with 50 μM 14-3-3γ (CC50)
T1 sequence (P61981 whole entry, other chains not shown, the tested form may be a part): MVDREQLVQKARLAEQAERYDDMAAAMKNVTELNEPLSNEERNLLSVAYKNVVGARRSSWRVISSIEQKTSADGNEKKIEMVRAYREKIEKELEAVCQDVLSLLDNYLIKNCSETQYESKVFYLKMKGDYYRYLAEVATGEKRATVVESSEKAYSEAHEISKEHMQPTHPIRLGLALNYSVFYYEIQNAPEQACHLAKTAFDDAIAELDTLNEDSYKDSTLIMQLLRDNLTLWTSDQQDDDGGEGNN
Protocol: Biochemical assessment of fragments 1-7 used a fluorescence anisotropy (FA) assay. […] The subsequent outputs are herein term termed ‘half maximal complex concentration (CC50)’. […] We sought to develop a structure-activity relationship (SAR) based upon these four chemotypes with the specific goal to develop high affinity molecular glues which orthosterically engage with p65 and stabilize the 14-3-3/p65 complex.
During compound titrations, the 14-3-3γ concentration was constant 50 μM and the compound was titrated in a 1:1 dilution series. In protein titrations, 14-3-3γ was titrated in a 1:1 dilution series in the presence of 1 mM compound. […] All measurements were performed once.

p65_45/14-3-3γ [2] = biological target: T1, p65_45/14-3-3γ; assay: Fluorescence anisotropy protein titration, p65_45 peptide/14-3-3γ in presence of 1 mM fragment; assay type: binding; design: The full length 14-3-3γ was dialysis against 25 mM HEPES pH7.5; made in house; host or cells: E. coli BL21(DE3), pPROEX HTb
Protocol: SF: the fold-change of apparent KD in comparison to a DMSO control.
During compound titrations, the 14-3-3γ concentration was constant 50 μM and the compound was titrated in a 1:1 dilution series. In protein titrations, 14-3-3γ was titrated in a 1:1 dilution series in the presence of 1 mM compound. The plates (Corning 384 well plates, black, round bottom, low binding) were incubated for 3 h RT prior to fluorescence anisotropy (FA) measurements with the Tecan Infinite 500 plate reader (FITC dye: excitation 485 nm, emission 535 nm). Dilution series were prepared in FA buffer (10 mM HEPES pH 7.4, 150 mM NaCl, 0.1% Tween20). All measurements were performed once.

ER = ER (Homo sapiens, UniProt P31947); assay: MS (KD,app), ER; assay type: binding; conditions: 24 hr incubation
Chain of ER (P31947 whole entry, other chains not shown, the tested form may be a part): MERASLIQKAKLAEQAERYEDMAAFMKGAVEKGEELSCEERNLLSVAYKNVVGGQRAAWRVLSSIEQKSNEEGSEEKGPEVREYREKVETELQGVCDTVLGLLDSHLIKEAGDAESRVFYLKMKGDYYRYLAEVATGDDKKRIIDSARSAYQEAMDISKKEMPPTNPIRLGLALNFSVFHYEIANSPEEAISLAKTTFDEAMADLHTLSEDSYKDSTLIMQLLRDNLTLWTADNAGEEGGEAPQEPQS

Pin1_72/14-3-3γ = biological target: T2, Pin1_72/14-3-3γ (Homo sapiens, UniProt P61981+Q13526); assay: Fluorescence anisotropy protein titration, Pin1_72/14-3-3γ at constant compound; assay type: binding; conditions: based on internal DMSO control and 100 μM fragment
T2 construct: the full length 14-3-3γ was dialysis against 25 mM HEPES pH 7.5; made in house; host or cells: E. coli BL21(DE3), pPROEX HTb
T2 sequence (P61981 whole entry, other chains not shown, the tested form may be a part): as the sequence (P61981 whole entry, other chains not shown, the tested form may be a part) above
Excerpt: Inspired by the binding poses of 3 and 9 we combined their structural features to improve stabilization. […] In case of complex stabilization, a left shift of apparent KD values is expected, here described as stabilization factors (SF).
Fluorescence Anisotropy (FA) Assays.

[3] = fold-change of apparent KD in comparison to a DMSO control, 1 mM fragment
[4] = Table 9, fold-change of apparent KD vs DMSO control

SMILES: COc1ccc2c(c1)OCCN2S(=O)(=O)c1ccc(C=O)cc1 [24i, 4-[(7-methoxy-3,4-dihydro-2H-1,4-benzoxazin-4-yl)sulfonyl]benzaldehyde]
- EC50 (p65_45/14-3-3γ [1]): 110 µM

SMILES: O=C(CCl)NCC1CCN(S(=O)(=O)c2ccc(Cl)cc2)CC1
- Kd (ER): 7.15 µM

SMILES: O=C(CCl)CCC1CCN(C(=O)C2(Nc3ccc(Cl)cc3)CCOCC2)CC1
- Kd (ER): 0.145 µM

SMILES: O=Cc1ccc(-n2ccnc2-c2ccccc2)cc1C(F)(F)F [compound 14, 4-(2-phenyl-1H-imidazol-1-yl)-2-(trifluoromethyl)benzaldehyde]
- SF (fold stabilization) (Pin1_72/14-3-3γ): 1.2

SMILES: O=Cc1ccc(-n2cncc2[C@H]2CCCN2CC2CC2)nc1 [16e, 6-{5-[(2R)-1-(cyclopropylmethyl)pyrrolidin-2-yl]-1H-imidazol-1-yl}pyridine-3-carbaldehyde]
- activity in FA compound titration (p65_45/14-3-3γ [1]): induced an increase in anisotropy

SMILES: O=Cc1ccc(S(=O)(=O)N2CCC(CNC(=O)CCl)CC2)cc1
- Kd (ER): 150 µM

SMILES: O=Cc1ccc(-n2ccnc2-c2ccccc2)cc1O [compound 19, 2-hydroxy-4-(2-phenyl-1H-imidazol-1-yl)benzaldehyde]
- SF (fold stabilization) (Pin1_72/14-3-3γ): 4.9

SMILES: COC1CCCN(c2cc(C=O)ccc2[N+](=O)[O-])C1 (centres unmarked) [13e, 3-(3-methoxypiperidin-1-yl)-4-nitrobenzaldehyde]
- activity in FA compound titration (p65_45/14-3-3γ [1]): did not elicit significant ternary complex formation

SMILES: O=Cc1ccc(-n2ccnc2Br)nc1 [16d, 6-(2-bromo-1H-imidazol-1-yl)pyridine-3-carbaldehyde]
- activity in FA compound titration (p65_45/14-3-3γ [1]): induced an increase in anisotropy

SMILES: C=CS(=O)(=O)NCC1CCN(C(=O)C2(Nc3ccc(Cl)cc3)CCOCC2)CC1
- Kd (ER): 0.125 µM

SMILES: O=Cc1ccc([N+](=O)[O-])c(N2CCCC(O)C2)c1 (centres unmarked) [13l, 3-(3-hydroxypiperidin-1-yl)-4-nitrobenzaldehyde]
- activity in FA compound titration (p65_45/14-3-3γ [1]): did not elicit significant ternary complex formation

SMILES: O=Cc1ccc([N+](=O)[O-])c(N2CCOCC2)c1 [13q, 3-(morpholin-4-yl)-4-nitrobenzaldehyde]
- activity in FA compound titration (p65_45/14-3-3γ [1]): did not elicit significant ternary complex formation

SMILES: O=Cc1ccc([N+](=O)[O-])c(N2CCC(O)CC2)c1 [13f, 3-(4-hydroxypiperidin-1-yl)-4-nitrobenzaldehyde]
- activity in FA compound titration (p65_45/14-3-3γ [1]): did not elicit significant ternary complex formation

SMILES: O=C(CCl)NCCCC1CCN(C(=O)C2(Nc3ccc(Cl)cc3)CCOCC2)CC1
- Kd (ER): < 0.1 µM

More lines, main results first:

- SF (p65_45/14-3-3γ [2]; [3]): 2.2
SMILES: O=Cc1ccc(S(=O)(=O)N2CCNC(=O)C2)cc1 [23p, 4-[(3-oxopiperazin-1-yl)sulfonyl]benzaldehyde]

- SF (p65_45/14-3-3γ [2]; [4]): 22
SMILES: O=Cc1ccc(S(=O)(=O)N2CCOc3ccc(F)cc32)cc1 [24g, 4-[(6-fluoro-3,4-dihydro-2H-1,4-benzoxazin-4-yl)sulfonyl]benzaldehyde]
- EC50 (p65_45/14-3-3γ [1]): 310 µM

- SF (p65_45/14-3-3γ [2]; [4]): 36
SMILES: CC1CCc2ccccc2N1S(=O)(=O)c1ccc(C=O)cc1 (racemic) [24b, rac-4-[(2-methyl-1,2,3,4-tetrahydroquinolin-1-yl)sulfonyl]benzaldehyde]
- EC50 (p65_45/14-3-3γ [1]): 310 µM

- SF (p65_45/14-3-3γ [2]; [3]): 1.8
SMILES: CN(C)S(=O)(=O)c1ccc(C=O)cc1 [23c, 4-formyl-N,N-dimethylbenzene-1-sulfonamide]

- SF (p65_45/14-3-3γ [2]; [3]): 4.5
SMILES: CC(=O)N1CCN(S(=O)(=O)c2ccc(C=O)cc2)CC1 [23o, 4-[(4-acetylpiperazin-1-yl)sulfonyl]benzaldehyde]

- SF (p65_45/14-3-3γ [2]; [4]): 28
SMILES: O=Cc1ccc(S(=O)(=O)N2CCOc3cc(Cl)ccc32)cc1 [24h, 4-[(7-chloro-3,4-dihydro-2H-1,4-benzoxazin-4-yl)sulfonyl]benzaldehyde]
- EC50 (p65_45/14-3-3γ [1]): 250 µM

- SF (p65_45/14-3-3γ [2]; [4]): 30
SMILES: O=Cc1ccc(S(=O)(=O)N2CCc3ccccc32)cc1 [24a, 4-(2,3-dihydro-1H-indole-1-sulfonyl)benzaldehyde]
- EC50 (p65_45/14-3-3γ [1]): 220 µM

- SF (p65_45/14-3-3γ [2]; [4]): 0.7^a
- SF (p65_45/14-3-3γ [2]; [3]): 0.7
SMILES: O=Cc1ccc(S(=O)(=O)N2CCc3ccccc3C2)cc1 [23y, 4-(1,2,3,4-tetrahydroisoquinoline-2-sulfonyl)benzaldehyde]
- EC50 (p65_45/14-3-3γ [1]): 180 µM

- SF (p65_45/14-3-3γ [2]; [3]): 5.1
SMILES: COC1CN(S(=O)(=O)c2ccc(C=O)cc2)C1 [23d, 4-[(3-methoxyazetidin-1-yl)sulfonyl]benzaldehyde]

- SF (p65_45/14-3-3γ [2]; [3]): 12.7
SMILES: CN(C1CCCCC1)S(=O)(=O)c1ccc(C=O)cc1 [23w, N-cyclohexyl-4-formyl-N-methylbenzene-1-sulfonamide]

- SF (p65_45/14-3-3γ [2]; [3]): 3.5
SMILES: CN(C)C1CCN(S(=O)(=O)c2ccc(C=O)cc2)CC1 [23n, 4-{[4-(dimethylamino)piperidin-1-yl]sulfonyl}benzaldehyde]

- SF (p65_45/14-3-3γ [2]; [3]): 3.3
SMILES: CN1CCN(S(=O)(=O)c2ccc(C=O)cc2)CC1 [23h, 4-[(4-methylpiperazin-1-yl)sulfonyl]benzaldehyde]

- SF (p65_45/14-3-3γ [2]; [3]): 3.3
SMILES: CCN1CCN(S(=O)(=O)c2ccc(C=O)cc2)CC1 [23i, 4-[(4-ethylpiperazin-1-yl)sulfonyl]benzaldehyde]

- SF (p65_45/14-3-3γ [2]; [3]): 6.3
SMILES: O=Cc1ccc(S(=O)(=O)N2CCOCC2)cc1 [23u, 4-(morpholine-4-sulfonyl)benzaldehyde]

- SF (p65_45/14-3-3γ [2]; [3]): 5.9
SMILES: CN(C1CCOCC1)S(=O)(=O)c1ccc(C=O)cc1 [23x, 4-formyl-N-methyl-N-(oxan-4-yl)benzene-1-sulfonamide]

- SF (p65_45/14-3-3γ [2]; [3]): 4.0
SMILES: CN1CCCN(S(=O)(=O)c2ccc(C=O)cc2)CC1 [23g, 4-[(4-methyl-1,4-diazepan-1-yl)sulfonyl]benzaldehyde]

- SF (p65_45/14-3-3γ [2]; [3]): 16.5
SMILES: COC1CCN(S(=O)(=O)c2ccc(C=O)cc2)CC1 [23t, 4-[(4-methoxypiperidin-1-yl)sulfonyl]benzaldehyde]

- SF (p65_45/14-3-3γ [2]; [3]): 3.5
SMILES: O=Cc1ccc(S(=O)(=O)N2CCC(N3CCCC3)CC2)cc1 [23m, 4-{[4-(pyrrolidin-1-yl)piperidin-1-yl]sulfonyl}benzaldehyde]

- SF (p65_45/14-3-3γ [2]; [3]): 7.5
SMILES: COC1CCCN(S(=O)(=O)c2ccc(C=O)cc2)C1 (centres unmarked) [23r, 4-[(3-methoxypiperidin-1-yl)sulfonyl]benzaldehyde]

- SF (p65_45/14-3-3γ [2]; [4]): 23
SMILES: O=Cc1ccc(S(=O)(=O)N2CCOc3ccccc32)cc1 [24f, 4-(3,4-dihydro-2H-1,4-benzoxazine-4-sulfonyl)benzaldehyde]
- EC50 (p65_45/14-3-3γ [1]): 220 µM

- SF (p65_45/14-3-3γ [2]; [4]): 56
SMILES: O=Cc1ccc(S(=O)(=O)N2CCCc3cc(F)ccc32)cc1 [24c, 4-[(6-fluoro-1,2,3,4-tetrahydroquinolin-1-yl)sulfonyl]benzaldehyde]
- EC50 (p65_45/14-3-3γ [1]): 140 µM

- SF (p65_45/14-3-3γ [2]; [3]): 10.3
SMILES: O=Cc1ccc(S(=O)(=O)N2CCCC(O)C2)cc1 (centres unmarked) [23q, 4-[(3-hydroxypiperidin-1-yl)sulfonyl]benzaldehyde]

- SF (p65_45/14-3-3γ [2]; [4]): 34
SMILES: COc1ccc2c(c1)CCCN2S(=O)(=O)c1ccc(C=O)cc1 [24e, 4-[(6-methoxy-1,2,3,4-tetrahydroquinolin-1-yl)sulfonyl]benzaldehyde]
- EC50 (p65_45/14-3-3γ [1]): 120 µM

- SF (p65_45/14-3-3γ [2]; [3]): 5.5
SMILES: CC(C)N1CCN(S(=O)(=O)c2ccc(C=O)cc2)CC1 [23j, 4-{[4-(propan-2-yl)piperazin-1-yl]sulfonyl}benzaldehyde]

- SF (p65_45/14-3-3γ [2]; [3]): 1.5
SMILES: Cn1ccc(NS(=O)(=O)c2ccc(C=O)cc2)n1 [23b, 4-formyl-N-(1-methyl-1H-pyrazol-3-yl)benzene-1-sulfonamide]

- SF (p65_45/14-3-3γ [2]; [4]): 36
SMILES: O=Cc1ccc(S(=O)(=O)N2CCCc3cc(Cl)ccc32)cc1 [24d, 4-[(6-chloro-1,2,3,4-tetrahydroquinolin-1-yl)sulfonyl]benzaldehyde]
- EC50 (p65_45/14-3-3γ [1]): 160 µM

- SF (p65_45/14-3-3γ [2]; [3]): 7.2
SMILES: O=Cc1ccc(S(=O)(=O)N2CCC(O)CC2)cc1 [23s, 4-[(4-hydroxypiperidin-1-yl)sulfonyl]benzaldehyde]

- SF (p65_45/14-3-3γ [2]; [3]): 20.6
SMILES: C[C@H]1CCCN1S(=O)(=O)c1ccc(C=O)cc1 [23e, 4-{[(2S)-2-methylpyrrolidin-1-yl]sulfonyl}benzaldehyde]

- SF (p65_45/14-3-3γ [2]; [3]): 4.5
SMILES: COCCN1CCN(S(=O)(=O)c2ccc(C=O)cc2)CC1 [23l, 4-{[4-(2-methoxyethyl)piperazin-1-yl]sulfonyl}benzaldehyde]
